Legend:
C57BL/6J mice = assay: Fear extinction paradigm (PTSD mouse model); assay type: in vivo
Excerpt: Effective PTSD treatments facilitate the disassociation between a traumatic memory and the patient's fear response, making cues for the traumatic memory evoke less of a fear response. This is modeled in the mouse fear extinction paradigm (see FIG. 9A) which takes place over 3 days. On day 1 (fear conditioning), mice are trained to acquire a “traumatic memory,” namely associating the conditioned stimulus (CS, tone) to the unconditioned stimulus (US, foot shock). On day 2 (extinction training), they are trained to forget the traumatic memory association by presenting the CS 6 times (with no US) in a novel environment. On day 3 (extinction recall), the mice are “asked” if that tone (CS) still elicits a fearful response, as measured by the time spent freezing when the tone is presented. Less time freezing means better extinction recall. Drugs that improve extinction recall reduce freezing time on day 3, and, therefore, show potential as a PTSD treatment.
Methods: Cued fear conditioning was performed in C57BL/6J mice. On day 1, animals were placed in the chambers and presented with a training session (CS-US pairing). The training consisted of a 2-minute habituation followed by a 30-second, 80 dB tone; during the last 2 seconds of the tone animals received a 1 mA foot shock. This US-CS procedure occurred once for a total of one paired presentation of tone and shock. Freezing behavior (immobility) was recorded in 5-10-see intervals during the session. Percent baseline freezing behavior was determined in the 2-minute habituation period. On day 3, animals were placed in context B, in which tactile and odor cues differed from context A. Following a 2 minute acclimation period animals received 4×30 sec presentations of the CS (tone) in the absence of the US (footshock), with a 45 sec interval between presentations. Freezing was recorded in 5-10-see intervals to measure baseline freezing response to the altered context, and freezing response to each tone cue presentation. […] On day 4 (Post-Extinction Testing in Drug-Free State), animals were placed in Context B. Following a 2 min acclimation period, animals received 4×30 sec extinction tone duration presentations of the CS (tone) in the absence of the US (footshock), with a 45 sec interval between presentations. Freezing was recorded in 5-10-see intervals to measure baseline freezing response to the altered context, and freezing response to each tone cue presentation.

[1] = Excipient compatibility study; assay type: physicochemical; settings: 2 Week 40° C./75% RH, closed vial
Procedure: Analyses were conducted at t=0, 2, 4 and 8 weeks for appearance, assay, and related substances for samples stored in closed vials at 25° C./60% RH and 40° C./75% RH.
Excipient Compatibility Sample Mixtures: The excipients and API were dispensed individually by weight into 20 mL clear borosilicate (type I) glass vials to fill the appropriate weights as listed in Table 12. Table 12 lists mixtures of API with varied excipients and a stand-alone control sample of API alone. Each excipient mixture sample preparation was conducted using a clean spatula to mix the vial ingredients for 30-60 seconds. Each vial was properly labeled with the description and storage conditions. One vial was used for testing at the initial (t=0) time point. Three vials, closed, were placed at each storage condition to allow sampling at each time point and one vial, closed, was placed at each storage condition for overage.

168 GPCRs [2] = target: 168 GPCRs (Homo sapiens, UniProt O95838); assay: β-arrestin GPCR screen (PathHunter/GPCRmax), agonist mode; assay type: cell-based; design: host or cells: PathHunter cell lines; settings: GPCR GLP2R; Agonist mode; 10 uM
Procedure: (§1) For agonist determination, cells were incubated with sample to induce response. […] Vehicle concentration was 1%.

168 GPCRs [3] = target: 168 GPCRs (Homo sapiens, UniProt Q969F8); assay: as above; assay type: cell-based; design: host or cells: PathHunter cell lines; settings: KISS1R; Agonist; 1 uM
Procedure: as §1

168 GPCRs [4] = target: 168 GPCRs (Homo sapiens, UniProt P32249); assay: as above; assay type: cell-based; design: host or cells: PathHunter cell lines; settings: GPCR EBI2; Agonist mode; 10 uM
Procedure: as §1

168 GPCRs [5] = target: 168 GPCRs (Homo sapiens, UniProt Q8NFJ6); assay: as above; assay type: cell-based; design: host or cells: PathHunter cell lines; settings: PROKR2; Agonist; 1 uM
Procedure: as §1

168 GPCRs (Homo sapiens, UniProt Q8NFJ6), sequence (Q8NFJ6 whole entry): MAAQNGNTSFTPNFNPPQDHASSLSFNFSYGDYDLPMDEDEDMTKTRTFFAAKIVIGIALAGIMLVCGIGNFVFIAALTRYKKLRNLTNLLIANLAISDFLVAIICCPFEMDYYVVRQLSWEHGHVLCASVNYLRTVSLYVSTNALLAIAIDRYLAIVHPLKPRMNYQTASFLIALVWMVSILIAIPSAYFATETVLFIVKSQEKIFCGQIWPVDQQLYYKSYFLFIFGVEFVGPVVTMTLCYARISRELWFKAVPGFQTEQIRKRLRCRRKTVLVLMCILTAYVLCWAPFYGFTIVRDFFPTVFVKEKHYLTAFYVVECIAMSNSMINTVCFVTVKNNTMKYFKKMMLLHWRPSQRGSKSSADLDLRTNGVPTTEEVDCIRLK
168 GPCRs (Homo sapiens, UniProt Q969F8), sequence (Q969F8 whole entry): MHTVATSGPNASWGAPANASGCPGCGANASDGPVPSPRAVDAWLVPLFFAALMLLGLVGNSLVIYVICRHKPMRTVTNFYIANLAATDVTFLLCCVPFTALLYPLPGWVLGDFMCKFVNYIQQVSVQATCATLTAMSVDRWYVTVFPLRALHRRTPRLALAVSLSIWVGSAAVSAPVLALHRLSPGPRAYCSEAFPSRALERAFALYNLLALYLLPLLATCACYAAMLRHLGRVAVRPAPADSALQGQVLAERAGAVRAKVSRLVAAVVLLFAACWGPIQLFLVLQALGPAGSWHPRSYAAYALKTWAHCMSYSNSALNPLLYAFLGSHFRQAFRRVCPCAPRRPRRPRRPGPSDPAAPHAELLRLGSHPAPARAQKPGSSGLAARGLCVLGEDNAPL
168 GPCRs (Homo sapiens, UniProt O95838), sequence (O95838 whole entry): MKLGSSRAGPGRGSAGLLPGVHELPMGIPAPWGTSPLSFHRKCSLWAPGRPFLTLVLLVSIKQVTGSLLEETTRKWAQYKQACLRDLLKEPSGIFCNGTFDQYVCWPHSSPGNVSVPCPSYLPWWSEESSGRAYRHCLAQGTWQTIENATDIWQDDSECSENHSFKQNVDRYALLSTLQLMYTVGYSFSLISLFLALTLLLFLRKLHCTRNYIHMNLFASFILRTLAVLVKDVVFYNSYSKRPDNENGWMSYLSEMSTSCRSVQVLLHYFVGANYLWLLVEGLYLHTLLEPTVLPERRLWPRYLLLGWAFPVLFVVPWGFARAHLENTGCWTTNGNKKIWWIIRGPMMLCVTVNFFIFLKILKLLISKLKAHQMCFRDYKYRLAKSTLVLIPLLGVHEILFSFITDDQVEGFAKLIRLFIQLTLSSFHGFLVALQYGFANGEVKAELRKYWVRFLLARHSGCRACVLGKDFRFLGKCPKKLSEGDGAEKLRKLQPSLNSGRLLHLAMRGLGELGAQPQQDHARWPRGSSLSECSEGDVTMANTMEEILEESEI
168 GPCRs (Homo sapiens, UniProt P32249), sequence (P32249 whole entry): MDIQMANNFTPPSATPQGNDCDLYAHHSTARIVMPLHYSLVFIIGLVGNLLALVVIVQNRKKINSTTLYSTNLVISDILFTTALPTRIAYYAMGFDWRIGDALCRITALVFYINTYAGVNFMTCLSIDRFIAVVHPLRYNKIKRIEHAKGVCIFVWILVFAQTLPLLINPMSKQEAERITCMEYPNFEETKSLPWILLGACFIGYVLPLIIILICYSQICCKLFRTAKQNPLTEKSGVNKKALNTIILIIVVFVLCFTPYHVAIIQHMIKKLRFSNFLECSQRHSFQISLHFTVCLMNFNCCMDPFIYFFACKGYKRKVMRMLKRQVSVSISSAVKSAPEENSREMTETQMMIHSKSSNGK

## CNC(C)C(=O)c1ccc2c(c1)OCO2 (stereo not drawn) [methylone, 3,4-methylenedioxy-N-methylcathinone]
C57BL/6J mice; Example 35, all doses (10, 20, 30 mg/kg IP)
  fear extinction training on day 3: significantly improved fear extinction training
C57BL/6J mice; Example 35, methylone 30 mg/kg IP 30 min before extinction training on day 3
  effect on fear extinction training and testing: rapid, robust and long-lasting beneficial effect
C57BL/6J mice; methylone 30 mg/kg IP 30 min before extinction training, day 3
  enhancement of fear extinction recall vs saline: ~60%
C57BL/6J mice; methylone 30 mg/kg IP, day 3
  locomotion during testing session: no differences between groups in locomotion
[1]
  Assay (% Recovery): 99.0 % Recovery
168 GPCRs [2]
  activity at 10 µM: -1%
168 GPCRs [3]
  activity at 1 µM: ~-5%
168 GPCRs [4]
  activity at 10 µM: -0.1%
168 GPCRs [5]
  activity at 1 µM: ~0%

Reference: patent US20250332139A1, “PS[…] AND THEIR USE FOR TREATING […] AND NE[…] DISORDERS” (Transcend Therapeutics, Inc., priority 2021, published 2025)
